Data reported in article PMC8231556, “Inhibiting Endothelial Cell Function in Normal and Tumor Angiogenesis Using BMP Type I Receptor Macrocyclic Kinase Inhibitors” (Cancers, 2021).

What was measured:
Experiment in all cases: radiometric kinase profiling (33 PanQinase)
Assay type in all cases: biochemical
BTK = target: T1, BTK (Homo sapiens, UniProt Q06187); conditions: read-out: Inhibitory effect (%) BTK
T1 construct: purchased Proqinase, Germany
Summary of the method: (§1)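 Enzyme/substrate mixes were incubated with [γ-33P]-ATP and compound (added as a 0.1 μM solution in 10% DMSO) at 30 °C for 60 min, then stopped with H3PO4 and washed with NaCl. 33P incorporation was scintillation-counted, and residual activity (%) was normalized to untreated control and background.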

MAP3K8 = target: T2, MAP3K8 (Homo sapiens, UniProt P41279); conditions: read-out: Inhibitory effect (%) MAP3K8
T2 construct: purchased ProQinase (33PanQinase Activity Assay)
Summary of the method: as §1

LRRK2 = target: T3, LRRK2 (Homo sapiens, UniProt Q5S007); conditions: read-out: Inhibitory effect (%) LRRK2
T3 construct: purchased ProQinase (33PanQinase Activity Assay)
Summary of the method: as §1

IRAK4 = target: T4, IRAK4 (Homo sapiens, UniProt Q9NWZ3); conditions: read-out: Inhibitory effect (%) IRAK4
T4 construct: purchased ProQinase (33PanQinase Activity Assay)
T4 sequence (Q9NWZ3 1-460): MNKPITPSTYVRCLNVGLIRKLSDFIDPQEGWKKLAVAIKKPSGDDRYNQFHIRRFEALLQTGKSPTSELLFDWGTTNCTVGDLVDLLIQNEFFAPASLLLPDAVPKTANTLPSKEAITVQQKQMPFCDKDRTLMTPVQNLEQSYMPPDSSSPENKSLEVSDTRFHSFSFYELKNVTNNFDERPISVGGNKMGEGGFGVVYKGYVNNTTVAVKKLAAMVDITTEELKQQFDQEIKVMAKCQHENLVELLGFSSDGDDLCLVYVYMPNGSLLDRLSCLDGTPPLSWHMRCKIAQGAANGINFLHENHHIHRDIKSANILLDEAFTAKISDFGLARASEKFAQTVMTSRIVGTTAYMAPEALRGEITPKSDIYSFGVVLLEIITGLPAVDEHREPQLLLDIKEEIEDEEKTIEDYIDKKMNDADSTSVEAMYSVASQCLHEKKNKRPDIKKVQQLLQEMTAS
Summary of the method: as §1

CDK8_cyclinC = target: T5, CDK8_cyclinC (Homo sapiens, UniProt P49336); conditions: read-out: Inhibitory effect (%) CDK8_cyclinC
T5 construct: purchased Proqinase, Germany
Summary of the method: as §1

NEK1 = target: T6, NEK1 (Homo sapiens, UniProt Q96PY6); conditions: read-out: Inhibitory effect (%) NEK1
T6 construct: purchased ProQinase (33PanQinase Activity Assay)
T6 sequence (Q96PY6 1-1258): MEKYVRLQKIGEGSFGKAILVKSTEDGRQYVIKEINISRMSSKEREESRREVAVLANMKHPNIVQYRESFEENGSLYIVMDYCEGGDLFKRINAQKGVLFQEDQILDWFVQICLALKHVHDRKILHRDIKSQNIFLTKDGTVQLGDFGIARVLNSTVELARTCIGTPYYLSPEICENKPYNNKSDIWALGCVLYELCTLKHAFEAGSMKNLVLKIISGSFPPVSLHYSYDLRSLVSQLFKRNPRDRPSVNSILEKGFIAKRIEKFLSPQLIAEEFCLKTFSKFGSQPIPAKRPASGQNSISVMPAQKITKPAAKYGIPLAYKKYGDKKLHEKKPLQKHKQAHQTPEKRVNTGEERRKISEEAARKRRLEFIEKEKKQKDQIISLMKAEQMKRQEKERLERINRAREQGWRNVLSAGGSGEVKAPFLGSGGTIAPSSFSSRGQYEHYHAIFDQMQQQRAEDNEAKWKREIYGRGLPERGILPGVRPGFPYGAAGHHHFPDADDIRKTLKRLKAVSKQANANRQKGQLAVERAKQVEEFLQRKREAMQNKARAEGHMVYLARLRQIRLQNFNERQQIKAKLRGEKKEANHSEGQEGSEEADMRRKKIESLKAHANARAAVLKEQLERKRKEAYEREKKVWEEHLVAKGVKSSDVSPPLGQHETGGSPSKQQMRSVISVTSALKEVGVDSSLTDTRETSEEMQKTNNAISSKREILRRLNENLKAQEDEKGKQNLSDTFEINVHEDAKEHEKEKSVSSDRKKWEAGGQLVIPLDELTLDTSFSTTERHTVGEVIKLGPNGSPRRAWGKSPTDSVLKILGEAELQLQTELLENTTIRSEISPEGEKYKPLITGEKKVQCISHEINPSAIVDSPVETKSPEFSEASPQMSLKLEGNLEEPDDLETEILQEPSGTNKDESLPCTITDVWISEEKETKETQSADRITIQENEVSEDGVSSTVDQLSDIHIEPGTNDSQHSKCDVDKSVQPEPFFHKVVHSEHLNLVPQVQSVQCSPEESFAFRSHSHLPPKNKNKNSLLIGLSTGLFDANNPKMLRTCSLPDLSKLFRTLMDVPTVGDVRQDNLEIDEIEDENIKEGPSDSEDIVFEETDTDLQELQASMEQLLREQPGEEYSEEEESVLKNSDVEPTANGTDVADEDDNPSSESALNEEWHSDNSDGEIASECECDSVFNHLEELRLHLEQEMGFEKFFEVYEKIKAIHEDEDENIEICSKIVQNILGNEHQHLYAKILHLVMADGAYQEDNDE
Summary of the method: as §1

SLK = target: T7, SLK (Homo sapiens, UniProt Q9H2G2); conditions: read-out: Inhibitory effect (%) SLK
T7 construct: purchased ProQinase (33PanQinase Activity Assay)
Summary of the method: as §1

T2 sequence (P41279 whole entry): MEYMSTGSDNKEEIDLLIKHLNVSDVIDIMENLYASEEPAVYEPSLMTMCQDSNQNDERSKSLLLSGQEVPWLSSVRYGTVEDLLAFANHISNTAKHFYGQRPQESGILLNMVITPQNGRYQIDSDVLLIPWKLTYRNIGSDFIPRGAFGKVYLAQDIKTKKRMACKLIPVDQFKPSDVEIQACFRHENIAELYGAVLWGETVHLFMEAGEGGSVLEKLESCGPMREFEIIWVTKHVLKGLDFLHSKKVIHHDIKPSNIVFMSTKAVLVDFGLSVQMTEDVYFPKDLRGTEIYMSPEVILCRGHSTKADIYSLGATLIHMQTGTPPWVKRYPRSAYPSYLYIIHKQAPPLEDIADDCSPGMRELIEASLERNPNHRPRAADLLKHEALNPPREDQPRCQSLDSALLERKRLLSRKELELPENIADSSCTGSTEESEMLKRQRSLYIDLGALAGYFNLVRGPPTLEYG
T3 sequence (Q5S007 whole entry): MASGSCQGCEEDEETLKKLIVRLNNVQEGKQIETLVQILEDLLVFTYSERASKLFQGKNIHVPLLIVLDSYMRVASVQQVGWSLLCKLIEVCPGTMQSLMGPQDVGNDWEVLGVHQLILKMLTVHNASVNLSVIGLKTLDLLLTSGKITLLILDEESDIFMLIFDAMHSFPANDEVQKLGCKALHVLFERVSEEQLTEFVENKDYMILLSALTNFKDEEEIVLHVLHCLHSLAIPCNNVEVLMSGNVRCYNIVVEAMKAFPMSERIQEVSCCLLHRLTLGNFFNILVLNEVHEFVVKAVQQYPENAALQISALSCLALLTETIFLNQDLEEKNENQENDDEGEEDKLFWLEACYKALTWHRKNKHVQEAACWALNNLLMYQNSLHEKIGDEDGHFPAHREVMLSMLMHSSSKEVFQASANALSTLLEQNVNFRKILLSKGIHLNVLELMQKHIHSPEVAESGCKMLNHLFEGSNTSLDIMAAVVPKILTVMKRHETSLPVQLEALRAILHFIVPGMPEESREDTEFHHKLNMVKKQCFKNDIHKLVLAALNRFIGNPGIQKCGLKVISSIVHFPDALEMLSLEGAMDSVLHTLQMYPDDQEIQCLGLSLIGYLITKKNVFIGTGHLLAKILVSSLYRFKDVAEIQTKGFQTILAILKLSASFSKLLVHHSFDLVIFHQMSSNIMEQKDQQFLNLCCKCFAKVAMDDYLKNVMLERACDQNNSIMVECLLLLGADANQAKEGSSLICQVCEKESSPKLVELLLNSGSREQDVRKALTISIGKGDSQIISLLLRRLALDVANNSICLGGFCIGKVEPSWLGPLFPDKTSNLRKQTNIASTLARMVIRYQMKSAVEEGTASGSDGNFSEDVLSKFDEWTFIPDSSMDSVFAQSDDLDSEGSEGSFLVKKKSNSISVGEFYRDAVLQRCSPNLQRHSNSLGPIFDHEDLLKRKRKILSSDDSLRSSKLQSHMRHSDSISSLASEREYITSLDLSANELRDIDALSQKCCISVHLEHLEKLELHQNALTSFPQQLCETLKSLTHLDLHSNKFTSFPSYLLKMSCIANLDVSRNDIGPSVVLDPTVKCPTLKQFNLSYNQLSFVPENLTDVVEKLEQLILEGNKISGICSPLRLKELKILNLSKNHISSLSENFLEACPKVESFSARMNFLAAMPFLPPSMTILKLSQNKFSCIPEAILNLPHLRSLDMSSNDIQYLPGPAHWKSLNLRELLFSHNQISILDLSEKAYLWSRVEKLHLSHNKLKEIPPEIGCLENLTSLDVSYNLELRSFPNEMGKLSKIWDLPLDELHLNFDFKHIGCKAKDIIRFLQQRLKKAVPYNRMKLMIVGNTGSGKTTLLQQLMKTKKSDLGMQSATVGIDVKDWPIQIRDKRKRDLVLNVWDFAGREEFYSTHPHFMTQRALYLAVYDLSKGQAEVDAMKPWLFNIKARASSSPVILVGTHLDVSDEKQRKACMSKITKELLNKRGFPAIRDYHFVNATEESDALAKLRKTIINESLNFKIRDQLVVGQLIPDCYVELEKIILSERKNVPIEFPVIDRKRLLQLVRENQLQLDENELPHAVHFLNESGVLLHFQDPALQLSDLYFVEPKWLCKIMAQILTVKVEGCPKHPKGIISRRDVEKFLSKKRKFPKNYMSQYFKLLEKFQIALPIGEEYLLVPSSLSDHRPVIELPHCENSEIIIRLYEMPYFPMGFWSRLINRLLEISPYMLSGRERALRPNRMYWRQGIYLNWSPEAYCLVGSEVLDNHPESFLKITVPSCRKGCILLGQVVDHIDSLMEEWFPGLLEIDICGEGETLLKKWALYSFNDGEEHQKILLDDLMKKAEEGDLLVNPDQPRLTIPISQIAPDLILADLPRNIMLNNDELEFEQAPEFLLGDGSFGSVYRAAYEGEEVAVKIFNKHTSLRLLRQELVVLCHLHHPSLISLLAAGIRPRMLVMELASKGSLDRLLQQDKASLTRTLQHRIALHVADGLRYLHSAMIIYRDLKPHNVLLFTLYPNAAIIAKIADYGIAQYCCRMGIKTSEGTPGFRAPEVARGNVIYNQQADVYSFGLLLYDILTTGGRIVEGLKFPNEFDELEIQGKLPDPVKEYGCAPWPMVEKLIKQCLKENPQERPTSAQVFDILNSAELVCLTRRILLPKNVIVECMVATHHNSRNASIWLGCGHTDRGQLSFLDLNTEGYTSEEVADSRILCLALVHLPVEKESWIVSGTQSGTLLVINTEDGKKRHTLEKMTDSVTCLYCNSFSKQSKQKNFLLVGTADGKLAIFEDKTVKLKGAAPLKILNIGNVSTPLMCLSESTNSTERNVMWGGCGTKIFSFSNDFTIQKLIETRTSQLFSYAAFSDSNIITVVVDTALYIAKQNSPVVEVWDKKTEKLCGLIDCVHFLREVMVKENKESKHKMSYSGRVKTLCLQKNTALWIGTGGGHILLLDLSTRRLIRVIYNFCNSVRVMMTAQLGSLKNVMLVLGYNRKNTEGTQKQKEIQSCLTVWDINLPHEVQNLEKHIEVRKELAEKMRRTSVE
T7 sequence (Q9H2G2 whole entry): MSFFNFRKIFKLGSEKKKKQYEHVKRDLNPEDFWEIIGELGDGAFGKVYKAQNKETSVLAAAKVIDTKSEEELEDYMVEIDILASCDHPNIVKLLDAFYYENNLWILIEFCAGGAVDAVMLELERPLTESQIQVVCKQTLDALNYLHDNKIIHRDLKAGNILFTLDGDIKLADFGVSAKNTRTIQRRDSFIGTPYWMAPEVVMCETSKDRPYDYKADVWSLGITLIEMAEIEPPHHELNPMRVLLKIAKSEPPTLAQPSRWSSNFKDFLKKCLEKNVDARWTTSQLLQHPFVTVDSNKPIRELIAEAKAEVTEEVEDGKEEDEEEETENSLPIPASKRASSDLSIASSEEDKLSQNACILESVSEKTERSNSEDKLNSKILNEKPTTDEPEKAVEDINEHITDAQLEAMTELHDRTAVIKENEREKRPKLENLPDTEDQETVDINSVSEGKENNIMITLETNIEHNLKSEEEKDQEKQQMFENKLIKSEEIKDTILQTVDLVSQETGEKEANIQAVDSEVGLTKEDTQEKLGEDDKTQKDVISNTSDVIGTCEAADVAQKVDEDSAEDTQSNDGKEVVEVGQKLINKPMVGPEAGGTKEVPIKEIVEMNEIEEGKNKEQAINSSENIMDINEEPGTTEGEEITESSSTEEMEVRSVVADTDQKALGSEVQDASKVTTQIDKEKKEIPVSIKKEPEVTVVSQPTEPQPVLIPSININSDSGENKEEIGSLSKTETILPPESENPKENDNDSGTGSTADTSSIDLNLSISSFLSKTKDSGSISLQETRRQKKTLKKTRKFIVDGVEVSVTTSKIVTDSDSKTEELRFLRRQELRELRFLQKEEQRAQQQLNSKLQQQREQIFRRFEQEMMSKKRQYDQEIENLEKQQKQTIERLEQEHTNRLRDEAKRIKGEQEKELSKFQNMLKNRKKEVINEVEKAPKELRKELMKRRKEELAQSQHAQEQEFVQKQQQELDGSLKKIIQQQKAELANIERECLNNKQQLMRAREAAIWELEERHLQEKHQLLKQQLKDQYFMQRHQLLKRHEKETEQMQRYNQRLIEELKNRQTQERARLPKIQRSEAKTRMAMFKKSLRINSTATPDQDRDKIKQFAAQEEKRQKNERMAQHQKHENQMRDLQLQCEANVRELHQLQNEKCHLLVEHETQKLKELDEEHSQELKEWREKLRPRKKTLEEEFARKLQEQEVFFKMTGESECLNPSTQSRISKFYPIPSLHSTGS
T5 sequence (P49336 whole entry): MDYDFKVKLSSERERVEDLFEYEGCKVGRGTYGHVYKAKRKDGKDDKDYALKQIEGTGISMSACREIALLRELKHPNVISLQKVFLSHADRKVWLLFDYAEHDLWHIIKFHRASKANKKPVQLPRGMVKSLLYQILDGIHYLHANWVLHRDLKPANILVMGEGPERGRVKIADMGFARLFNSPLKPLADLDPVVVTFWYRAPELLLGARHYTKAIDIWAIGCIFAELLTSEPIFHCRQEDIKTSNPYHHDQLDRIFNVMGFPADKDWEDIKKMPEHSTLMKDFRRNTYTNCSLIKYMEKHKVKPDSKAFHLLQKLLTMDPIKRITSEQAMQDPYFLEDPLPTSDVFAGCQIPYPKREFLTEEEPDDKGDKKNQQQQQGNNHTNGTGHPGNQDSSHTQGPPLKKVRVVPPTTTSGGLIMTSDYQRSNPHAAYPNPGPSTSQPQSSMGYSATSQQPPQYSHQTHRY
T5 sequence (P24863 whole entry partner): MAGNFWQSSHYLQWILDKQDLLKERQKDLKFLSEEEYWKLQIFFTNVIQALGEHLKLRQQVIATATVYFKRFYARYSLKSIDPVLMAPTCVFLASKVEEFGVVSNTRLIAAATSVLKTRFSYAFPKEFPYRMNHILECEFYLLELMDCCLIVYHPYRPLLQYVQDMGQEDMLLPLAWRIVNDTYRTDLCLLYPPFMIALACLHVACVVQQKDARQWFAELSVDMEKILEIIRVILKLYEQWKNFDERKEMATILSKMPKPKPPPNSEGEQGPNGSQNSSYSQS

Row | Compound | inhibition at 0.1 µM (BTK) [%] | inhibition at 0.1 µM (MAP3K8) [%] | inhibition at 0.1 µM (LRRK2) [%] | inhibition at 0.1 µM (IRAK4) [%] | inhibition at 0.1 µM (CDK8_cyclinC) [%] | inhibition at 0.1 µM (NEK1) [%] | inhibition at 0.1 µM (SLK) [%]
1 | c1ccc2c(-c3cnn4cc(-c5ccc(N6CCNCC6)cc5)cnc34)ccnc2c1 [LDN-193189, reference compound] | -12.4 | -10.3 | 5.16 | -6.28 | -1.99 | -11.9 | -18.4
2 | CN1CCc2cccc(c2)Nc2nccc(n2)N2CCCc3cc(ccc32)C1 [OD16] | -12 | -16.9 | 18.4 | 4.7 | -16.6 | -6.3 | 26.5
3 | CN1CCC(=O)NCCNc2ccn3ncc(c3n2)-c2cccc(c2)C1 [OD29] | 7.22 | -5.03 | 13.8 | 26.4 | -9.32 | 12.6 | 27.7
